We go through five compounds from US20240352053A1, “SALT AND CRYSTAL FORM OF EGFR INHIBITOR, AND COMPOSITION AND USE THEREOF” (BETTA PHARMACEUTICALS CO., LTD, priority 2021, published 2024).

Data set [1] can be described thus: Pharmacokinetic test, oral administration in male SD rats. The settings on record: plasma, 50 mg/kg, distilled water. The data set is classed as in vivo, rat. The method, then: Male SD rats purchased from Beijing Weitonglihua Experimental Animal Technology Co Ltd. were used for oral administration PK studies. The dose was 50 mg/kg, the preparation was distilled water, and the compound concentrations corresponding to the test compounds were 5 mg/mL, ready for use. Oral administration is by oral gavage at 10 mL/kg. Blood was collected through the rat orbital venous plexus, and […] was taken at each time point into an EDTA anticoagulant tube. The blood collection time is: 15 min, 30 min, 1 h, 2 h, 4 h, 7 h, 24 h, 30 h, 48 h, centrifuge at 4000 rpm for 10 min, take the supernatant to obtain 100 μL plasma, and store it in a −80° C. refrigerator, spare. After precipitating the protein from the above plasma sample with acetonitrile, take the supernatant and mix it with water 1:1, and take 10 μL for LC-MS/MS detection.

For data set [2], the system named is human epidermal cancer cell A431 carrying EGFR WT. The following applies: 72 hours, CTG; data recorded in PCT/CN2021/075994; cited from earlier work.
The test system of data set [3] is Ba/F3-Δ19del/T790M/C797S cells. The following applies: 72 hours, CTG; data recorded in PCT/CN2021/075994; read-out: Ba/F3/EGFR Δ19del/T790M/C797S IC50; cited from earlier work.
The next data set relates to Ba/F3 EGFR WT cells. The following applies: 72 hours, CTG; data recorded in PCT/CN2021/075994; read-out: BaF3 EGFR WT IC50; cited from earlier work.
The nature of data set [4]: DVS test (dynamic vapor sorption). The data set is classed as physicochemical. An excerpt:
Take crystal form A of the compound represented by Formula III for DVS measurement, and the obtained DVS spectrum is shown in FIG. 5-2.

The nature of data set [5]: Measurement of crystal form stability (HPLC chemical purity, XRPD). The data set is classed as physicochemical. The settings on record: for Chemical purity (%) 0 days: HPLC. The method, then: The X-ray powder diffraction pattern detection equipment and method of the present invention are as shown in the X-ray powder diffraction table in the instrument and analysis method. After the test compounds are placed under different temperature, humidity and light conditions for a period of time, the purity is tested. Purity testing method: Use high-performance liquid chromatography (HPLC) to detect the chemical purity of this product. Determine according to high performance liquid chromatography (“Chinese Pharmacopoeia” 2020 edition, Part IV, General Chapter 0512). […] XRPD characterization was performed on the samples after being placed under different temperature, humidity and light conditions for a period of time.

Where two headings read alike, the source gives them in different places.

`COc1cc(N2CCC(N3CCN(C)CC3)CC2)c(C)cc1Nc1ncc(Br)c(Nc2ccc3nc(C4CC4)ccc3c2P(C)(C)=O)n1.O=C(O)C[C@H](O)C(=O)O` gave an AUC(0-t) in data set [1] (male, SD, rat, po) of 27.4 µg·h/mL. The Cmax in data set [1] (male, SD, rat, po, read-out: Cmax) was determined as 1.99 µg/mL.
Regarding `COc1cc(N2CCC(N3CCN(C)CC3)CC2)c(C)cc1Nc1ncc(Br)c(Nc2ccc3nc(C4CC4)ccc3c2P(C)(C)=O)n1` [(6-((5-bromo-2-((2-methoxy-5-methyl-4-(4-(4-methylpiperazin-1-yl))piperidin-1-yl)phenyl)amino)pyrimidin-4-yl)amino)-2-cyclopropylquinolin-5-yl)dimethylphosphine oxide], the IC50 is 1.13 µM in data set [2], 0.0068 µM in data set [3] and 0.151 µM with Ba/F3 EGFR WT cells.
Take `CCc1cc(Nc2ncc(Br)c(Nc3ccc4ncccc4c3P(C)(C)=O)n2)c(OC)cc1N1CCC(N2CCN(C)CC2)CC1` [Control Example 1, reference compound]: the IC50 was 0.245 µM in data set [2], 0.009 µM in data set [3] and 0.0399 µM with Ba/F3 EGFR WT cells.
`COc1cc(N2CCC(N3CCN(C)CC3)CC2)c(C)cc1Nc1ncc(Br)c(Nc2ccc3nc(C4CC4)ccc3c2P(C)(C)=O)n1.O=C(O)C[C@H](O)C(=O)O` [Crystal form A of the compound represented by formula III]: in data set [1], the AUClast came to 47.593 µg·h/mL and the Cmax was 2.557 µg/mL. In addition, the hygroscopic weight gain entry in data set [4] (25° C./80% RH) was “about 3.43%”. In data set [4] (25° C./80% RH for 24 hours), the “sample weight after placement in DVS” value was “remained basically unchanged”. In data set [4] (25° C./80% RH, after 24 hours), the “crystal form after placement in DVS” value is “did not change”. The “crystal form before and after the DVS test” value in data set [4] (DVS, 25° C.) was “does not change”. In addition, the “Chemical purity (%) 0 days” value in data set [5] worked out at 98.85%. Further, in data set [5] (60° C., placement time 13 days), the “Chemical purity (%) 60° C.” value was 98.80%. Also, in data set [5] (placement time 13 days), the “Chemical purity (%) 92.5% RH” value came out at 98.98% and the “Chemical purity (%) 4500 lx illumination” value is on record as 98.83%.
Regarding `COc1cc(N2CCC(N3CCN(C)CC3)CC2)c(C)cc1Nc1ncc(Br)c(Nc2ccc3nc(C4CC4)ccc3c2P(C)(C)=O)n1.O=C(O)C[C@H](O)C(=O)O` [Crystal form J of the compound represented by formula III], in data set [5], the “Chemical purity (%) 0 days” value was 99.59%. In data set [5] (placement time 10 days), the “Chemical purity (%) 92.5% RH” value is recorded as 99.59% and the “Chemical purity (%) 4500 lx illumination” value is 96.05%.

By AUC(0-t) is commonly meant exposure summed from dosing to a finite time, without extrapolation to infinity. Broadly, the Cmax is the peak of the concentration-time curve.
